For series [1] the following is noted: Crystal 2; Adiabatic calorimetry.
Series [2] is described as follows: Molar enthalpy of transition or fusion. As to conditions: Crystal 2; DSC.

Numbers after ± are expanded uncertainties.

On to `C1C2CC3CC1CC(C2)C3` [adamantane], for which the Triple point temperature in series [1] is 208 ± 0.18 K. The “Molar enthalpy of transition or fusion” value in series [2] came to 0.739 ± 0.043 kcal/mol.

(Values after the NIST ThermoML archive (doi:10.1016/j.tca.2006.02.036).)
